Data published in patent US8742167B2, “Therapeutic formulations based on asiatic acid and selected salts thereof” (Shanghai Institute of Pharmaceutical Industry, priority 2008, dated 2014).
≈ marks a conversion by molar mass, not a printed value. Where “and” joins values, the source holds several entries; their conditions need not be identical. Identical values can stand only once. Entries after “also recorded” stand apart in the source; their conditions may differ. Like-named read-outs stand apart in the source and are kept apart here. Marks after values point to notes of the source that are not given here.

Key:
Type III collagen = Type III collagen content, bleomycin rat model; type: in vivo, SD rats; conditions: for Type III collagen content X ± SD: treatment starting on Day 7
Experimental: (§1) Male SD rats, body weight 250-300 g. The animals were anesthetized with 3% seconal, laid flat and fixed onto the operating table. The necks of the animals were disinfected with alcohol and cut to expose tracheae. A needle was inserted via the space between tracheal rings centripetally, and 5 mg/kg of bleomycin was injected. The rats were kept upright and rotated, in order to keep the solution uniformly distributed in the lungs. Then the incisions were sutured.
(§2) After the rats regained consciousness, they were randomly grouped. The animals were divided into (i) a group receiving administration on the next day after establishing the model and (ii) a group receiving administration at 7 days after the model was established. Included were 27, 9, and 3 mg/kg p.o.×28 d asiatic acid groups, 0.6 mg/kg p.o.×28 d dexamethasone group, 36 mg/kg p.o.×28 d asiaticoside group, model group, and blank group. Normal saline was administered for the model and blank groups. On the 28th day after asiatic acid and asiaticoside administration, survival and weight ratio of lungs were measured; pathological examination and serological examination were performed.

[1] = tested on: bleomycin-induced pulmonary fibrosis in rats; assay: Lung weight index of bleomycin-induced pulmonary fibrosis in rats; type: in vivo, SD rats; conditions: for lung weight ratio (%): (lung weight/body weight)x100%
Experimental: as §1, §2
Effect of on lung weight index of bleomycin-induced pulmonary fibrosis in rats treated with asiatic acid Body weight and lung weight were measured after the rats were sacrificed. Lung weight ratio=(lung weight/body weight)×100%.

TNF-α = assay: Serological test (ELISA kit) of TNF-α in rats of bleomycin-induced pulmonary fibrosis; type: in vivo, SD rats; conditions: for TNF-α (2nd day) X ± SD / TNF-α (7th day) X ± SD: serum; for TNF-α (2nd day) X ± SD: dosing from 2nd day; for TNF-α (7th day) X ± SD: dosing from 7th day; for serum levels of TNF-α (words): treatment initiated one day or seven days after bleomycin
Experimental: TNF-α Kit, Human 96T ELISA kit imported by Shanghai Jingmei
as §1, §2
(§3) Serum samples were prepared according to a standard protocol (centrifuged 3000 rpm, 10 minutes after collection) and were stored at −20° C. Testing was conducted in accordance with kit instructions.

[2] = Solubility in water and methanol (saturated solutions, HPLC); type: physicochemical
Experimental: Approximately 5 mg of asiatic acid were transferred into a 25 mL volumetric flask, and 1 mL, of methanol was added and mixed well, until the acid had dissolved in the methanol. The volumetric flask then was brought to volume with mobile phase and mixed well. [table] Saturated solutions obtained from starting material and salt in methanol and water were filtered and diluted accordingly with mobile phase. No dilution was performed for asiatic acid in water. Samples were prepared in triplicate except for the sodium salt prepared in methanol, for which two preparations were done.

TFG-β = assay: Serological test (ELISA kit) of TFG-β in rats of bleomycin-induced pulmonary fibrosis; type: in vivo, SD rats; conditions: for TFG-β (2nd day) X ± SD / TFG-β (7th day) X ± SD: serum; for TFG-β (2nd day) X ± SD: dosing from 2nd day; for TFG-β (7th day) X ± SD: dosing from 7th day; for serum levels of TGF-β (words): treatment initiated one day or seven days after bleomycin
Experimental: TFG-β Kit, Human 96T ELISA kit imported by Shanghai Jingmei
as §1, §2, §3

[3] = tested on: bleomycin-induced pulmonary fibrosis in rats; assay: Mortality during experiment days 7-28, bleomycin-induced pulmonary fibrosis in rats; type: in vivo, SD rats
Experimental: as §1, §2

[4] = tested on: pulmonary fibrosis induced by bleomycin in rats; assay: Pathological analysis of lung (HE staining; collagen fiber and elastic fiber dual staining); type: in vivo, SD rats; conditions: for collagen fiber and elastic fiber staining / lung pathology, HE staining: administration on the next day after establishing model
Experimental: as §1, §2
The lung tissues were fixed in 10% formalin for 1 week. […] The thickness of sections was […]. Routine hematoxylin-eosin (HE) staining was performed. Dual special staining of collagen fibers and elastic fibers were conducted in order to detect the degree of fibrosis. The staining of the two groups of sections was observed and the results were as follows.

Hydroxyproline = assay: Measured value of hydroxyproline in experiment of asiatic acid antagonizing fibrosis; type: in vivo, SD rats; design: Measured Value of Hydroxyproline (on 2nd day), single animals / Measured Value of Hydroxyproline (on 2nd day), X / Measured Value of Hydroxyproline (on 7th day), single animals / Measured Value of Hydroxyproline (on 7th day), X: unit not given here; conditions: for Measured Value of Hydroxyproline (on 2nd day), X / Measured Value of Hydroxyproline (on 7th day), X: group mean; for Measured Value of Hydroxyproline (on 2nd day), single animals / Measured Value of Hydroxyproline (on 7th day), single animals: individual rats 1-10
Experimental: as §1, §2

[5] = asiatic acid high dose (27 mg/kg)
[6] = asiatic acid low dose (3 mg/kg)
[7] = asiatic acid middle dose (9 mg/kg)

C[C@H]1[C@H](C)CC[C@]2(C(=O)O)CC[C@]3(C)C(=CC[C@@H]4[C@@]5(C)C[C@@H](O)[C@H](O)[C@@](C)(CO)[C@@H]5CC[C@]43C)[C@H]12 [Asiatic acid, asiatic acid]
Type III collagen content X ± SD (Type III collagen; asiatic acid Medium dose (9 mg/kg)): 0.515 ± 0.398 | Type III collagen content X ± SD (Type III collagen; [5]): 0.387 ± 0.287 | Type III collagen content X ± SD (Type III collagen; [6]): 0.764 ± 0.826 | serum levels of type III collagen (Type III collagen; overall statement): significantly decrease bleomycin-induced fibrosis | lung weight ratio (%) ([1]; asiatic acid 3 mg/kg, started 7 day after model established): 0.83** % | lung weight ratio (%) ([1]; asiatic acid 3 mg/kg, started from the second day): 0.84** % | lung weight ratio (%) ([1]; asiatic acid 9 mg/kg, started 7 day after model established): 0.82** % | lung weight ratio (%) ([1]; asiatic acid 9 mg/kg, started from the second day): 0.78** % | lung weight ratio (%) ([1]; asiatic acid 27 mg/kg, started 7 day after model established): 0.73** % | lung weight ratio (%) ([1]; asiatic acid 27 mg/kg, started from the second day): 0.69** % | lung weight (g) X ± SD ([1]; asiatic acid 3 mg/kg, 28-day administration started 7 day after model established): 2.64 ± 0.33 g | lung weight (g) X ± SD ([1]; asiatic acid 3 mg/kg, 28-day administration started from the second day): 2.74 ± 0.54 g | lung weight (g) X ± SD ([1]; asiatic acid 9 mg/kg, 28-day administration started 7 day after model established): 2.69 ± 0.53 g | lung weight (g) X ± SD ([1]; asiatic acid 9 mg/kg, 28-day administration started from the second day): 2.49 ± 0.40 g | lung weight (g) X ± SD ([1]; asiatic acid 27 mg/kg, 28-day administration started 7 day after model established): 2.52 ± 0.25 g | lung weight (g) X ± SD ([1]; asiatic acid 27 mg/kg, 28-day administration started from the second day): 2.41 ± 0.38 g | lung weight to body weight ratio ([1]; starting on 2nd or 7th day, compared with the model group): significantly lower; also recorded: significantly decrease bleomycin-induced lung fibrosis | TNF-α (2nd day) X ± SD (TNF-α; asiatic acid 3 mg/kg): 0.055 ± 0.008 OD value | TNF-α (7th day) X ± SD (TNF-α; asiatic acid 3 mg/kg): 0.084 ± 0.018 OD value | TNF-α (2nd day) X ± SD (TNF-α; asiatic acid 9 mg/kg): 0.056 ± 0.016 OD value | TNF-α (7th day) X ± SD (TNF-α; asiatic acid 9 mg/kg): 0.096 ± 0.036 OD value | TNF-α (2nd day) X ± SD (TNF-α; asiatic acid 27 mg/kg): 0.050 ± 0.007 OD value | TNF-α (7th day) X ± SD (TNF-α; asiatic acid 27 mg/kg): 0.047 ± 0.013 OD value | serum levels of TNF-α (words) (TNF-α): significantly reduces | serum levels of TNF-α (words) (TNF-α; listed as asiatic acid): can lower | Solubility ([2]; MeOH, single preparations (inj 1A-1C), listed as Asiatic acid raw material): 37200 µg/mL and 34870 µg/mL | solubility in methanol ([2]; methanol): good solubility | Solubility ([2]; methanol, organic solvent or mixture, thermodynamic from solid, MeOH, single preparations (inj 1A-1C), read-out: Solubility): 27200 µg/mL (≈ 55700 µM) | Solubility ([2]; water, thermodynamic from solid, water, read-out: Solubility in water): 30 µg/mL (≈ 61.4 µM) | Solubility ([2]; water, thermodynamic from solid, water, single preparations (inj 1A-1C), read-out: Solubility): 30 µg/mL (≈ 61.4 µM) | Solubility ([2]; water, single preparations (inj 1A-1C), listed as Asiatic acid raw material): 40 µg/mL and 20 µg/mL | TFG-β (2nd day) X ± SD (TFG-β; asiatic acid 3 mg/kg): 0.726 ± 0.220 OD value | TFG-β (7th day) X ± SD (TFG-β; asiatic acid 3 mg/kg): 1.494 ± 0.273 OD value | TFG-β (2nd day) X ± SD (TFG-β; asiatic acid 9 mg/kg): 0.642 ± 0.139 OD value | TFG-β (7th day) X ± SD (TFG-β; asiatic acid 9 mg/kg): 1.165 ± 0.412 OD value | TFG-β (2nd day) X ± SD (TFG-β; asiatic acid 27 mg/kg): 0.653 ± 0.157 OD value | TFG-β (7th day) X ± SD (TFG-β; asiatic acid 27 mg/kg): 1.049 ± 0.363 OD value | serum levels of TGF-β (words) (TFG-β): significantly reduces | serum levels of TGF-β (words) (TFG-β; listed as asiatic acid): can lower | remaining samples at the end of study ([3]; Asiatic acid-H (27 mg/kg p.o. x 28 d), dosing started on 2nd day, 13 on day 7): 13 | number of deaths ([3]; Asiatic acid-H (27 mg/kg p.o. x 28 d), dosing started on 2nd day, days 7-28): 0 | number of deaths ([3]; Asiatic acid-H (27 mg/kg p.o. x 28 d), dosing started on 7th day): 0 | remaining samples at the end of study ([3]; Asiatic acid-H (27 mg/kg p.o. x 28 d), dosing started on 7th day, 13 in the group): 13 | remaining samples at the end of study ([3]; Asiatic acid-L (3 mg/kg p.o. x 28 d), dosing started on 2nd day, 13 on day 7): 11 | number of deaths ([3]; Asiatic acid-L (3 mg/kg p.o. x 28 d), dosing started on 2nd day, days 7-28): 2 | number of deaths ([3]; Asiatic acid-L (3 mg/kg p.o. x 28 d), dosing started on 7th day): 1 | remaining samples at the end of study ([3]; Asiatic acid-L (3 mg/kg p.o. x 28 d), dosing started on 7th day, 13 in the group): 12 | remaining samples at the end of study ([3]; Asiatic acid-M (9 mg/kg p.o. x 28 d), dosing started on 2nd day, 14 on day 7): 13 | number of deaths ([3]; Asiatic acid-M (9 mg/kg p.o. x 28 d), dosing started on 2nd day, days 7-28): 1 | number of deaths ([3]; Asiatic acid-M (9 mg/kg p.o. x 28 d), dosing started on 7th day): 1 | remaining samples at the end of study ([3]; Asiatic acid-M (9 mg/kg p.o. x 28 d), dosing started on 7th day, 13 in the group): 12 | survival / bleomycin-induced death ([3]; rats treated with bleomycin, treatment initiated one day or seven days after bleomycin): largely prevented bleomycin-induced death; also recorded: significantly enhance survival | collagen fiber and elastic fiber staining [4, 5]: only a little fibroplastic proliferation | lung pathology, HE staining [4, 5]: mild infiltration of inflammatory cells | efficacy by pathology compared with asiaticoside group ([4]; asiatic acid high-dose group): better than in the asiaticoside group | lung pathology, HE staining [4, 6]: mild inflammation and alveolitis | collagen fiber and elastic fiber staining [4, 7]: significantly milder than that of the model group | lung pathology, HE staining [4, 7]: mild infiltration of inflammatory cells | bleomycin-induced lung fibrosis by lung histopathology ([4]; overall statement): effective against bleomycin-induced pulmonary fibrosis, on a dose-response basis; also recorded: reduces the extent of bleomycin-induced lung fibrosis | lung fibrosis by histopathology compared with dexamethasone ([4]; treatment initiated seven days after bleomycin insult): more effective than dexamethasone | Measured Value of Hydroxyproline (on 2nd day), X (Hydroxyproline; asiatic acid 3 mg/kg): 24.31 | Measured Value of Hydroxyproline (on 7th day), X (Hydroxyproline; asiatic acid 3 mg/kg): 25.65 | Measured Value of Hydroxyproline (on 2nd day), single animals (Hydroxyproline; asiatic acid 3 mg/kg): 19.57 and 28.21 and 24.03 and 19.66 and 25.61 and 26.55 and 26.34 and 24.09 and 19.07 and 29.99 | Measured Value of Hydroxyproline (on 7th day), single animals (Hydroxyproline; asiatic acid 3 mg/kg): 20.31 and 27.14 and 28.27 and 26.14 and 28.01 and 29.34 and 25.07 and 25.36 and 25.47 and 21.37 | Measured Value of Hydroxyproline (on 2nd day), X (Hydroxyproline; asiatic acid 9 mg/kg): 22.94 | Measured Value of Hydroxyproline (on 7th day), X (Hydroxyproline; asiatic acid 9 mg/kg): 25.21 | Measured Value of Hydroxyproline (on 2nd day), single animals (Hydroxyproline; asiatic acid 9 mg/kg): 28.26 and 15.05 and 29.14 and 28.98 and 27.69 and 19.03 and 19.46 and 18.22 and 24.01 and 19.56 | Measured Value of Hydroxyproline (on 7th day), single animals (Hydroxyproline; asiatic acid 9 mg/kg): 28.19 and 24.39 (2×) and 27.98 and 28.36 and 19.36 and 24.64 and 25.66 and 29.47 and 19.66 | Measured Value of Hydroxyproline (on 2nd day), X (Hydroxyproline; asiatic acid 27 mg/kg): 21.65 | Measured Value of Hydroxyproline (on 7th day), X (Hydroxyproline; asiatic acid 27 mg/kg): 23.40 | Measured Value of Hydroxyproline (on 2nd day), single animals (Hydroxyproline; asiatic acid 27 mg/kg): 17.64 and 25.36 and 25.18 and 24.36 and 20.19 and 18.6 and 19.36 and 20.97 and 27.69 and 17.11 | Measured Value of Hydroxyproline (on 7th day), single animals (Hydroxyproline; asiatic acid 27 mg/kg): 19.68 and 19.47 and 20.14 and 24.36 (2×) and 27.14 and 25.1 and 26.38 and 27.66 and 19.74 | serum levels of hydroxyproline (Hydroxyproline; overall statement): significantly decrease bleomycin-induced fibrosis
